For 2 compounds, IC50 and minimal effective dose results are on record in patent US5266570A, “Piperidine derivatives, compositions and use” (Imperial Chemical Industries PLC, priority 1991, dated 1993).

The target of assay [1] is T1, dopamine (DA) D-2 receptor (Rattus norvegicus, UniProt P61169).
T1 construct: Specifically, rat striatal membranes were used; from tissue; host or cells: rat striatum (membranes)
Put plainly: TEST A: [3H]-spiperone binding, dopamine (DA) D-2 receptor, rat striatal membranes. The note with it: 0.5 nM [3H] spiperone, 40 nM ketanserin, pH 7.7, 37° C., 15 min, typical values, read-out: IC50 (drug concentration which produced a 50% displacement) for the displacement of [3H] spiperone. From the text: (§1) The compounds of Formula I are antagonists of dopamine D-2 receptors, and as such are predicted to be useful as antipsychotic drugs. D-2 antagonism can be shown by standard tests such as antagonism of [^3 H]-spiperone binding (Test A), and/or antagonism of apomorphine-induced climbing and apomorphine-induced disruption of swimming (Test B).
The receptor binding assay used to measure affinities of various compounds for the dopamine (DA) D-2 receptor subtype was that described by Saller and Salama in J Pharmacol Exp Ther 236, page 714, 1986.
Specifically, rat striatal membranes were used. Tissue membranes were prepared and washed once in 50 volumes of the appropriate Tris HCl buffer. For the D-2 receptor binding assay, striatal membranes were suspended to a final concentration of 8 mg/ml in 50 mM Tris HCl with 40 nM ketanserin, pH 7.7. Nonspecific binding to D-2 receptors was measured in the presence of 1.0 μM (+)-butaclamol. IC50 s (drug concentration which produced a 50% displacement) for the displacement of 0.5 nM [^3 H] spiperone were determined using at least five concentrations of each drug in triplicate. One-half milliliter of membrane suspension was incubated with the compound of interest or vehicle or nonspecific drug, ligand and appropriate Tris HCl buffer. […] The amount of drug bound to the membranes was assessed using liquid scintillation counting techniques. […]
Background: In a radioligand displacement assay an active substance lowers the binding of a labelled ligand.

For assay [2], the system named is apomorphine-induced climbing and apomorphine-induced disruption of swimming. Put plainly: TEST B: antagonism of apomorphine-induced climbing and apomorphine-induced disruption of swimming. The format is in vivo, mouse (female Swiss-Webster mice). As to conditions: Mus musculus; mice, oral, 30 min before apomorphine HCl 1.25 mg/kg sc; typical values; read-out: minimum effective dose (decrease in climbing score accompanied by increase in swimming score). The procedure: as §1
Female Swiss-Webster mice weighing approximately 20 g were deprived of food for approximately 24 h and then dosed orally with various doses of either the vehicle or test agent over a range of doses (N=20 mice per treatment group). Thirty minutes later they were dosed with apomorphine HCl at 1.25 mg/kg, sc, and placed into climbing cages. The climbing cages were 9 cm wide, 15 cm deep and 30 cm high. One wall had 27 horizontal rungs spaced 1 cm apart. Thirteen minutes after apomorphine each mouse was observed continuously for 1 min and the highest and lowest rung reached by its front paws was recorded. […] (The highest and lowest scores were 27 and 0, respectively.) Immediately after the 1-min climbing observation period each mouse was placed into a circular swimming tank for 2 min and the number of swims was counted. […] A "swim" was scored each time a mouse swam from one mark to the other. The mice were observed through overhead mirrors and the number of 180 degree swims was recorded for each mouse. […]

T1 sequence (P61169 whole entry): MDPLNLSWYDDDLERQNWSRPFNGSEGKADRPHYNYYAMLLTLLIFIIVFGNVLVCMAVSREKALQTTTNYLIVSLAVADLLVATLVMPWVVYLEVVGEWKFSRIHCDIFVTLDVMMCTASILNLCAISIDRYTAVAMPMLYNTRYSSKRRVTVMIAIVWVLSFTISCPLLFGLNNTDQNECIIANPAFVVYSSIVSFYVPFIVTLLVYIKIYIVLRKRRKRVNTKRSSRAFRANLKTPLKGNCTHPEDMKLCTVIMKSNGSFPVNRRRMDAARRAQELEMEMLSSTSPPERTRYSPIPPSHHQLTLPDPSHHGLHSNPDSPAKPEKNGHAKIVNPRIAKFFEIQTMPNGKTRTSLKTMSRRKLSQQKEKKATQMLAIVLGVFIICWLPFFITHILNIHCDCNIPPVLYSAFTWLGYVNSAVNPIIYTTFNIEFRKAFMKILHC

As for `CCOCC(=O)NC1CCN(C[C@@]23C[C@@H](c4ccccc42)c2ccc(Cl)cc23)CC1` [Example 1, N-(1-[(9S,10S)-(+)-2-Chloro-9,10-dihydro-9,10-methanoanthracen-9-ylmethyl]-4-piperidyl)-2-ethoxyacetamide], the IC50 in assay [1] came out at 9 nM. For the same compound, the minimal effective dose in assay [2] is 2.5 mg/kg.
Turning to `CCC(=O)NC1CCN(CC23CC(c4ccccc42)c2ccc(Cl)cc23)CC1` (stereo not shown) [Example 24, N-(1-[2-Chloro-9,10-dihydro-9,10-methanoanthracen-9-ylmethyl]-4-piperidyl)propionamide], the IC50 in assay [1] was found to be 146 nM. The minimal effective dose in assay [2] stood at 40 mg/kg.
